Here are results for 20 molecules from patent US4876262A, “Piperidine derivative and pharmaceutical composition containing the same” (Eisai Co., Ltd., priority 1986, dated 1989).

In data set [1] the test system is isolated myocardium of guinea-pigs (right ventricular papillary muscles). Briefly: Effects on the action potential duration in the isolated myocardium of guinea-pigs. Further details: species or system guinea-pig (male, Hartley strain). As to conditions: Cavia porcellus, 10 min; for activation at 10 µM / activation at 1 µM: read-out: APD90 prolongation; for inhibition at 10 µM / inhibition at 1 µM: read-out: Vmax inhibition.
Protocol: Right ventricular papillary muscles were isolated from male guinea-pigs of Hartley strain weighing 300 to 400 g and fixed at the bottom of an acrylic bath with pins. […] The muscles were stimulated at 1 Hz with rectangular pulses of 1 msec duration and supramaximal voltage. Action potentials were recorded using conventional glass microelectrodes filled with 3M KCl. The duration of the action potential and the maximum velocity of the upstroke of the action potential (Vmax) were determined. Each of the test compounds was included in Tyrode solution at 10^-6 or 10^-5 M and perfused.
Sotalol, a beta-adrenoceptor antagonist was employed as the reference drug because this compound is known to prolong the duration of the myocardial action potential.

Data set [2] has as its system anesthetized dogs (QTc-interval of ECG). Briefly: Effects of QTc-interval of ECG in anesthetized dogs. Format: in vivo, Mongrel dogs. The note with it: forearm vein; for change in vivo at 1 mg/kg: 1 mg/kg (1.0 mg/kg).
A short description of a further data set: in vivo. As to conditions: mouse, iv. On the procedure:
Male ddy mice weighing 20 to 30 g were used for the acute toxicity test. LD50 values were calculated by the up-and-down method. […] The dose to be administered was determined on the basis of the volume of the stock solution. The solutions were injected into a tail vein by means of a 1-ml tuberculin syringe. The judgement of survival or death was made 30 min after each injection.

The mark [3] stands for this setting: 10^-5 M, another 10 min after 10^-6 M, 1 Hz, 37° C.
Setting [4] is: 10^-6 M, first 10 min, 1 Hz, 37° C.
[5] abbreviates: Canis lupus familiaris, iv, 0.1 mg/kg, enflurane anesthesia, read-out: prolongation of QTc-interval.
[6] abbreviates: Canis lupus familiaris, iv, enflurane anesthesia, read-out: prolongation of QTc-interval.

The term inhibition denotes the change of the read-out against control, counted positive when it falls. What is called LD50 is the dose expected to kill half of the subjects tested.

Where a name gives a salt, the structure may show the parent alone. Read-outs that look alike come from different tables or passages of the source.

Take `CS(=O)(=O)Nc1ccc(C(=O)C2CCN(Cc3ccccc3)CC2)cc1` [Compound A, 1-benzyl-4-(4-methylsulfonylaminobenzoyl)piperidine hydrochloride]: in data set [1] (setting [3]), the activation at 10 µM was 7% and the inhibition at 10 µM was determined as 0%. Moreover, in data set [1] (setting [4]), the activation at 1 µM turned out to be 0% and the inhibition at 1 µM came out at 0%.

In the case of `CS(=O)(=O)Nc1ccc(C(=O)C2CCN(CCc3ccccc3)CC2)cc1.Cl` [Compound B, 4-(4-methylsulfonylaminobenzoyl)-1-(2-phenylethyl)piperidine hydrochloride], in data set [1] (setting [3]), the activation at 10 µM stood at 34% and the inhibition at 10 µM was found to be 19%. Further, in data set [1] (setting [4]), the activation at 1 µM amounted to 26% and the inhibition at 1 µM worked out at 0%. Also, the QTc-interval after compound in data set [2] (0.1 mg/kg, from 435 msec before) came to 665 ms. Also, the change in vivo at 0.1 mg/kg in data set [2] (setting [5]) came out at 51%. Further, the LD50 at 0.5 h in the data set “in vivo” is 100 mg/kg.

On to `CS(=O)(=O)Nc1ccc(C(=O)C2CCN(CCc3ccc(Cl)cc3)CC2)cc1` [Compound C, 1-[2-(4-chlorophenyl)ethyl]-4-(4-methylsulfonylaminobenzoyl)piperidine hydrochloride], for which, in data set [1] (setting [3]), the activation at 10 µM was 15% and the inhibition at 10 µM stood at 0%. In addition, in data set [1] (setting [4]), the activation at 1 µM was determined as 7% and the inhibition at 1 µM came out at 0%.

As to `CS(=O)(=O)Nc1ccc(C(=O)C2CCN(C(=O)c3ccc(NS(C)(=O)=O)cc3)CC2)cc1` [Compound D, 1,4-di(4-methylsulfonylaminobenzoyl)piperidine hydrochloride], in data set [1] (setting [3]), the activation at 10 µM was found to be 10% and the inhibition at 10 µM amounted to 0%. For the same molecule, in data set [1] (setting [4]), the activation at 1 µM is 3% and the inhibition at 1 µM is 0%.

Regarding `COc1ccc(CCN2CCC(C(=O)c3ccc(NS(C)(=O)=O)cc3)CC2)cc1OC` [Compound E, 1-[2-(3,4-dimethoxyphenyl)ethyl]-4-(4-methylsulfonylaminobenzoyl)piperidine hydrochloride], in data set [1] (setting [3]), the activation at 10 µM came to 14% and the inhibition at 10 µM was determined as 0%. For the same molecule, in data set [1] (setting [4]), the activation at 1 µM stood at 12% and the inhibition at 1 µM came out at 0%.

Consider `CS(=O)(=O)Nc1ccc(C(=O)C2CCN(CCc3cccs3)CC2)cc1.CS(=O)(=O)O` [Compound F, 4-(4-methylsulfonylaminobenzoyl)-1-[2-(2-thienyl)ethyl]piperidine methylsulfonate], for which, in data set [1] (setting [3]), the activation at 10 µM amounted to 11% and the inhibition at 10 µM was 0%. In addition, in data set [1] (setting [4]), the activation at 1 µM is 8% and the inhibition at 1 µM is 0%. In the data set “in vivo”, this molecule came in with an LD50 at 0.5 h of 112 mg/kg.

As for `CS(=O)(=O)Nc1ccc(C(=O)C2CCN(Cc3ccncc3)CC2)cc1.Cl.Cl` [Compound G, 4-(4-methylsulfonylaminobenzoyl)-1-(4-pyridyl)methylpiperidine dihydrochloride], in data set [1] (setting [3]), the activation at 10 µM worked out at 33% and the inhibition at 10 µM was found to be 0%. In data set [1] (setting [4]), the activation at 1 µM was 18% and the inhibition at 1 µM turned out to be 0%. Moreover, the change in vivo at 0.1 mg/kg in data set [2] (setting [5]) was determined as 17%. Moreover, in data set [2] (setting [6]), the change in vivo at 0.3 mg/kg worked out at 27% and the change in vivo at 1 mg/kg was 35%. Moreover, the LD50 at 0.5 h in “in vivo” was 108 mg/kg.

On to `CS(=O)(=O)Nc1ccc(C(=O)C2CCN(CCc3ccccn3)CC2)cc1` [Compound H, 4-(4-methylsulfonylaminobenzoyl)-1-[2-(2-pyridyl)ethyl]piperidine dihydrochloride], for which, in data set [1] (setting [3]), the activation at 10 µM was found to be 5% and the inhibition at 10 µM was found to be 0%. Further, in data set [1] (setting [4]), the activation at 1 µM was 2% and the inhibition at 1 µM is 0%.

`CS(=O)(=O)Nc1ccc(C(=O)C2CCN(CCc3cccnc3)CC2)cc1` [Compound I, 4-(4-methylsulfonylaminobenzoyl)-1-[2-(3-pyridyl)ethyl]piperidine dihydrochloride]: in data set [1] (setting [3]), the activation at 10 µM came out at 17% and the inhibition at 10 µM came out at 0%. Besides, in data set [1] (setting [4]), the activation at 1 µM was 10% and the inhibition at 1 µM amounted to 0%.

With `CS(=O)(=O)Nc1ccc(C(=O)C2CCN(CCc3ccncc3)CC2)cc1.Cl.Cl` [Compound J, 4-(4-methylsulfonylaminobenzoyl)-1-[2-(4-pyridyl)ethyl]piperidine dihydrochloride], in data set [1] (setting [3]), the activation at 10 µM was found to be 10% and the inhibition at 10 µM was determined as 0%. For the same molecule, in data set [1] (setting [4]), the activation at 1 µM was found to be 4% and the inhibition at 1 µM amounted to 0%. Further, the change in vivo at 0.1 mg/kg in data set [2] (setting [5]) was 21%. Besides, the change in vivo at 0.3 mg/kg in data set [2] (setting [6]) came out at 42%. In the data set “in vivo”, this molecule yielded a 50% lethal dose (LD50) at 0.5 h of 195 mg/kg.

For `CS(=O)(=O)Nc1ccc(C(=O)C2CCN(C(=O)c3cccnc3)CC2)cc1` [Compound K, 4-(4-methylsulfonylaminobenzoyl)-1-nicotinoylpiperidine], in data set [1] (setting [3]), the activation at 10 µM came out at 24% and the inhibition at 10 µM came out at 14%. Also, in data set [1] (setting [4]), the activation at 1 µM was determined as 9% and the inhibition at 1 µM is 0%.

Turning to `CS(=O)(=O)Nc1ccc(C(=O)C2CCN(Cc3ccc4ccccc4n3)CC2)cc1.Cl.Cl` [Compound L, 4-(4-methylsulfonylaminobenzoyl)-1-(2-quinolylmethyl)piperidine dihydrochloride], in data set [1] (setting [3]), the activation at 10 µM is 26% and the inhibition at 10 µM is 2%. Further, in data set [1] (setting [4]), the activation at 1 µM is 18% and the inhibition at 1 µM is 0%. In data set [2] (setting [5]), the change in vivo at 0.1 mg/kg is 31%. The change in vivo at 0.3 mg/kg in data set [2] (setting [6]) was determined as 56%. Further, the LD50 at 0.5 h in the data set “in vivo” was 112 mg/kg.

On to `CS(=O)(=O)Nc1ccc(C(=O)C2CCN(Cc3cnc4ccccc4c3)CC2)cc1.Cl.Cl` [Compound M, 4-(4-methylsulfonylaminobenzoyl)-1-(3-quinolylmethyl)piperidine dihydrochloride], for which, in data set [1] (setting [3]), the activation at 10 µM worked out at 5% and the inhibition at 10 µM stood at 0%. In addition, in data set [1] (setting [4]), the activation at 1 µM turned out to be 3% and the inhibition at 1 µM was 0%. Further, the change in vivo at 0.1 mg/kg in data set [2] (setting [5]) worked out at 7%. Also, in data set [2] (setting [6]), the change in vivo at 0.3 mg/kg stood at 13% and the change in vivo at 1 mg/kg came to 21%. For the same molecule, in “in vivo”, the median lethal dose (LD50) at 0.5 h came to 112 mg/kg.

For the molecule `CS(=O)(=O)Nc1ccc(C(=O)C2CCN(CC(=O)c3cnc4ccccn34)CC2)cc1.Cl.Cl` [Compound N, 1-[2-(3-imidazo[1,2-a]pyridyl)-2-oxo-ethyl]-4-(4-methylsulfonylaminobenzoyl)piperidine dihydrochloride], in data set [1] (setting [3]), the activation at 10 µM was found to be 8% and the inhibition at 10 µM came out at 0%. In data set [1] (setting [4]), the activation at 1 µM amounted to 8% and the inhibition at 1 µM was found to be 0%. The LD50 at 0.5 h in the data set “in vivo” came to 224 mg/kg.

On to `CS(=O)(=O)Nc1ccc(C(=O)C2CCN(Cc3cn4ccccc4n3)CC2)cc1` [Compound O, 1-(1-imidazo[1,2-a]pyridylmethyl)-4-(4-methylsulfonylaminobenzoyl)piperidine dihydrochloride], for which, in data set [1] (setting [3]), the activation at 10 µM amounted to 12% and the inhibition at 10 µM was determined as 5%. Further, in data set [1] (setting [4]), the activation at 1 µM stood at 6% and the inhibition at 1 µM was 0%. The molecule also had an LD50 at 0.5 h in “in vivo” of 302 mg/kg.

For `CCN1CCC(C(=O)c2ccc(NS(C)(=O)=O)cc2)CC1` [Compound P, 1-ethyl-4-(4-methylsulfonylaminobenzoyl)piperidine hydrochloride], in data set [1] (setting [3]), the activation at 10 µM worked out at 23% and the inhibition at 10 µM came out at 2%. In data set [1] (setting [4]), the activation at 1 µM was determined as 7% and the inhibition at 1 µM is 0%. Moreover, in data set [2] (setting [5]), the change in vivo at 0.1 mg/kg was 7%. For the same molecule, in data set [2] (setting [6]), the change in vivo at 0.3 mg/kg was determined as 14%.

Take `CS(=O)(=O)Nc1ccc(C(=O)C2CCN(Cc3ccc4nccn4c3)CC2)cc1` [Compound Q, 1-(6-imidazo[1,2-a]pyridylmethyl)-4-(4-methylsulfonylaminobenzoyl)piperidine dihydrochloride]: in data set [1] (setting [3]), the activation at 10 µM came to 23% and the inhibition at 10 µM is 0%. Further, in data set [1] (setting [4]), the activation at 1 µM came to 4% and the inhibition at 1 µM came to 0%.

Take `CS(=O)(=O)Nc1ccc(C(=O)C2CCN(CCCc3ccncc3)CC2)cc1.Cl.Cl` [Compound R, 4-(4-methylsulfonylaminobenzoyl)-1-(3-(4-pyridyl)propyl)piperidine dihydrochloride]: in data set [1] (setting [3]), the activation at 10 µM came out at 27% and the inhibition at 10 µM amounted to 0%. Also, in data set [1] (setting [4]), the activation at 1 µM worked out at 18% and the inhibition at 1 µM stood at 0%. In addition, the change in vivo at 0.03 mg/kg in data set [2] (Canis lupus familiaris, iv, 0.03 mg/kg, enflurane anesthesia, read-out: prolongation of QTc-interval) was found to be 13%. The change in vivo at 0.1 mg/kg in data set [2] (setting [5]) is 21%. The LD50 at 0.5 h in “in vivo” is 138 mg/kg.

As to `Cc1cccc(CCN2CCC(C(=O)c3ccc(NS(C)(=O)=O)cc3)CC2)n1` [Compound S, 1-(2-(6-methyl-2-pyridyl)ethyl)-4-(4-methylsulfonylaminobenzoyl)piperidinedihydrochloride], in data set [1], the activation at 1 µM worked out at 20%, the activation at 10 µM was found to be 30%, the inhibition at 1 µM turned out to be 0% and the inhibition at 10 µM worked out at 0%.

As for `CC(C)NCC(O)c1ccc(NS(C)(=O)=O)cc1` (centres unmarked) [Sotalol, reference compound], in data set [1] (setting [3]), the activation at 10 µM worked out at 7% and the inhibition at 10 µM was 0%. In addition, in data set [1] (setting [4]), the activation at 1 µM amounted to 0% and the inhibition at 1 µM stood at 0%. For the same molecule, in data set [2] (setting [6]), the change in vivo at 1 mg/kg was 12%. Further, the LD50 at 0.5 h in the data set “in vivo” turned out to be 113 mg/kg.
